Assay results reported in ChEMBL document CHEMBL1150450, “Synthesis and antiangiogenic activity of new carbohydrate derivatives” (Bioorg Med Chem Lett, 1996).
Values joined by “and” are separate entries in the source; they are usually repeats but may differ in a detail not shown here. Equal entries are not always repeated.

Assays:
[1] = test system: A-431; assay: In vitro antiproliferative effect against A431 human epidermoid carcinoma cells; format: functional, cell-based
[2] = Antiproliferative effect against primary endothelial cells from pork aorta(ECPA); format: functional, cell-based, Sus scrofa, Endothelial cell
[3] = species: Gallus gallus; assay: Antiangiogenic activity using CAM assay, activity expressed as % of eggs with avascular zone (125 nM).; format: functional
[4] = Compound was tested for antiproliferative effect against primary endothelial cells from pork aorta(ECPA); format: functional, cell-based; details: Sus scrofa, Endothelial cell
[5] = Compound was tested for antiproliferative effect against primary endothelial cells from pork aorta(ECPA) with first-phase IC50 of 0.1 nM; details: Sus scrofa, Endothelial cell
[6] = Compound was tested for antiproliferative effect against primary endothelial cells from pork aorta(ECPA) with first-phase IC50 of 0.001 nM; details: Sus scrofa, Endothelial cell
[7] = Compound was tested for antiproliferative effect against primary endothelial cells from pork aorta (ECPA) with first-phase IC50 of 0.1 nM; details: Sus scrofa, Endothelial cell

| Structure (SMILES) | IC50 ([1]; Homo sapiens, A-431) | IC50 ([2]; Sus scrofa, Endothelial cell) | Eggs [3] | further results |
| --- | --- | --- | --- | --- |
| CNC(=O)O[C@@H]1CO[C@]2(COC(C)(C)O2)[C@@](O)(C2(C)CO2)[C@@H]1OC (some centres not stated) | > 500 µM | 195 µM | 51% |  |
| CCOC(=O)CNC(=O)O[C@@H]1CO[C@]2(COC(C)(C)O2)[C@@](O)(C2OC2CC(C)C)[C@@H]1OC (some centres not stated) | 442 µM | 343 µM | 21% |  |
| CO[C@@H]1C(=O)CO[C@]2(COC(C)(C)O2)[C@@]1(O)C1(C)CO1 (some centres not stated) | > 500 µM | 119 µM | 48% |  |
| CO[C@@H]1[C@H](OC(=O)NCCCl)CO[C@]2(COC(C)(C)O2)[C@@]1(O)C1(C)CO1 (some centres not stated) | > 500 µM | 278 µM | 10% |  |
| CO[C@@H]1[C@H](OC(=O)NC(=O)CCl)CO[C@]2(COC(C)(C)O2)[C@@]1(OC)C1(C)CO1 (some centres not stated) | 39 µM | 175 µM | 16% |  |
| CO[C@@H]1[C@H](OC(=O)NC(=O)CCl)CO[C@]2(COC(C)(C)O2)[C@@]1(O)C1OC1CC(C)C (some centres not stated) | 44 µM | 124 µM | 75% and 68% | IC50 ([2]; endothelial cell): 178 µM |
| CCOC(=O)NC(=O)O[C@@H]1CO[C@]2(COC(C)(C)O2)[C@@](O)(C2OC2CC(C)C)[C@@H]1OC (some centres not stated) | 471 µM | 398 µM | 11% |  |
| C=C(C)[C@@]1(O)[C@H](OC)[C@H](OC)CO[C@]12CO2 | > 500 µM | > 500 µM | 32% |  |
| CO[C@@H]1[C@H](OC(=O)/C=C/C=C/C=C/C=C/C(=O)O)CC[C@]2(CO2)[C@H]1[C@@]1(C)O[C@@H]1CC=C(C)C [FUMAGILLIN] | 48 µM |  | 80% | IC50 [5]: 100 µM |
| CO[C@@H]1[C@H](OC(=O)NC(=O)CCl)CC[C@]2(CO2)[C@H]1[C@@]1(C)O[C@@H]1CC=C(C)C [O-CHLOROACETYLCARBAMOYLFUMAGILLOL] | 5.3 µM |  | 85% | IC50 [6]: 12 µM |
| CO[C@@H]1C(=O)CC[C@]2(CO2)[C@@]1(O)[C@@]1(C)O[C@@H]1CC=C(C)C [OVALICIN] | 7.5 µM |  |  | IC50 [7]: 10 µM |

Now from value to molecule, other results behind:

| IC50 ([1]; Homo sapiens, A-431) | Structure (SMILES) | IC50 ([2]; Sus scrofa, Endothelial cell) | Eggs [3] | further results |
| --- | --- | --- | --- | --- |
| 1.2 µM | CO[C@@H]1[C@H](OC(=O)NC(=O)CCl)CO[C@]2(COC(C)(C)O2)[C@]1(CCCCCc1ccccc1)OC(=O)NC(=O)CCl | 0.8 µM | 88% |  |
| > 500 µM | CO[C@@H]1[C@H](OC(=O)NC(=O)c2ccccc2)CO[C@]2(COC(C)(C)O2)[C@@]1(O)C1(C)CO1 (some centres not stated) | 363 µM | 55% |  |
| 3.7 µM | CO[C@@H]1[C@H](OC(=O)NC(=O)CCl)CO[C@]2(COC(C)(C)O2)[C@@]1(OC(=O)NC(=O)CCl)C1OC1CCCc1ccccc1 (some centres not stated) | 16 µM | 63% |  |
| 38 µM | CO[C@@H]1[C@H](OC(=O)NC(=O)CCl)CO[C@]2(COC(C)(C)O2)[C@@]1(OC(=O)NC(=O)CCl)C1(C)CO1 (some centres not stated) | 122 µM | 62% |  |
| 2 µM | CO[C@@H]1[C@H](OC(=O)NC(=O)CCl)CO[C@]2(COC(=O)O2)[C@]1(CCCCCc1ccccc1)OC(=O)NC(=O)CCl | 2.4 µM | 80% |  |
| 5.6 µM | CO[C@@H]1[C@H](OC(=O)NC(=O)CCl)CO[C@]2(COC(C)(C)O2)[C@@]1(OC(=O)NC(=O)CCl)C(C)C | 23 µM | 95% |  |
| 19 µM | CO[C@@H]1[C@H](OC(=O)NC(=O)CCl)CO[C@]2(COC(C)(C)O2)[C@@]1(O)C1OC1CCCc1ccccc1 (some centres not stated) | 68 µM | 79% and 76% | IC50 ([1]; a-431): 29 µM; IC50 ([2]; endothelial cell): 90 µM |
| 11 µM | CO[C@@H]1[C@H](OC(=O)NC(=O)CCl)CO[C@]2(COC(=O)O2)[C@@]1(O)CCCCCc1ccccc1 |  | 95% | IC50 [4]: 14 µM |
| 84 µM | CO[C@@H]1[C@H](OC(=O)NC(=O)CCl)CO[C@]2(COC(C)(C)O2)[C@@]1(O)C1(C)CO1 (some centres not stated) | 57 µM | 84% |  |
